Paper PMC12973313 (Chemical Science, 2026)
Read-outs that look alike come from different tables or passages of the source.

Columns and labels:
[1] = system: A2780 CisR cisplatin resistant ovarian cancer cells; assay: GI50 determination, SRB assay; assay type: cell-based, human; conditions: read-out: Mean GI50 (μM) A2780 CisR SRB Assays
Procedure: (§1) GI50 determination assays
(§2) Cell culture: The RPE-1 retinal pigment epithelial, A2780 human ovarian carcinoma, and A2780 CisR cisplatin resistant human ovarian carcinoma cell lines were donated with thanks from the Institute of Cancer Research. The A2780 and A2780 CisR cell lines were cultured in IMDM supplemented with 10 % FBS at 37 °C and 5 % CO2, while the RPE-1 cell line was cultured in a 1:1 mixture of Dulbecco's Modified Eagle Medium and Ham’s F-12 Nutrient Mixture (DMEM/F-12) at 37 °C and 5 % CO2.
(§3) SRB assay: Cells were seeded into 96-well plates at 800 cells per well/cpw (A2780), 1600 cpw (A2780 CisR) or 400 cpw (RPE-1) in cell culture medium and cultured for 48 hours followed by addition of each compound over an eight-point concentration range (each concentration in triplicate). Plates were then cultured for a further 96 hours, after which the cell culture […]
(§4) medium was removed from each well and the cells fixed with addition of 70 µL/well of 10 % (w/v) trichloroacetic acid (TCA) in distilled water followed by incubation for 30 minutes at RT.
(§5) Each plate was then washed with distilled water five times before addition of 70 µL SRB dye (0.4 % (w/v) SRB dye (ThermoFisher Scientific, USA) solubilised in 1 % (v/v) acetic acid/ dH2O) and incubat ed for 30 minutes at RT, followed by washing three times with 1 % (v/v) acetic acid and drying in a 37 °C oven overnight. Once dry, 100 μl of 10 mM Tris -base (ThermoFisher Scientific, USA) was added to each well and plates put on a microplate shaker for 10 minutes at 200 rpm to solubilize the dye. Absorbance values were then read at wavelength 490 nm on a Victor X4 multi-label plate reader (PerkinElmer Life Sciences, USA), data analysed using Microsoft Excel and graphs produced using GraphPad Prism 9.0 and the GI50 value calculated.
(§6) Solutions and compo und preparation: All solvents and starting materials were purchased from known chemical suppliers. Compound stock solutions were prepared in DMSO. Buffer […]
(§7) 500 mM. Buffer B consisted of Na2SO4 (167 mM) and NaOAc (5 mM) with a pH of 5.5 and an ionic strength of 500 mM.
(§8) Vesicle formation: Giant unilamellar Vesicles (GUVS) were prepared through the electro formation method using a Nanion VesiclePrepPro. A solution of 1,2-diphytanoyl-sn-glycero-3-phosphocholine (DPhPC) (10 mM) with 10 % cholesterol in chloroform (20 µL) was deposited onto an ITO coated glass surface (surface coated glass slide) and allowed to evaporate to create a dehydrated thin lipid film. A greased O-ring was then placed around the dehydrated lipid film to create a seal. This volume was then filled with a sucrose solution (275 µL, 200 mM) and then sealed with a second ITO coated glass slide. An AC current (3 V/5 Hz) was then applied. After 2 hrs, the voltage and frequency were reduced in steps over 30 mins to 1.6 V/1 Hz and held for 1 hr before being reduced to 0 V/0 Hz over a further 30 min […]
(§9) Patch clamp measurements: Experiments were performed using a Port-a-Patch system (Nanion Technologies) with borosilicate glass chips that contain an aperture diameter of approximately 1 µm. Buffer A (5 µL) was placed on the underside of the chip over the aperture, The chip was then placed into the port-a-patch system. Buffer A (15 µL) was then added to the top of the chip and 5 µL of the GUV stock solution added. The GUVS were the positioned over the aperture in the chip by application of negative pressure (-30 mbar).
(§10) When a GUV is positioned over the aperture in the chip, it bursts, leaving a planar bilayer as a seal. The negative pressure is then removed, leaving the planar bilayer in place over the aperture. The external buffer A was the exchanged with buffer B, through four simultaneous […]
(§11) buffer exchanges (4 x 15 µL). […]
(§12) = 30 s, to give a final experimental concentration of 0.1 – 1 mM as appropriate. The number of sweeps was set to 1000, the sweep interval to 0.00 s, sample interval to 1.00 ms and the protocol was run for a total of 5 mins. Each experiment was repeated a minimum of three time to ensure reproducibility.

[2] = system: A2780 ovarian cancer cells; assay: GI50 determination, SRB assay; assay type: cell-based, human; conditions: for GI50: 96 hours, read-out: Mean GI50 (μM) A2780 SRB Assays
Procedure: as §1, §2, §3, §4, §5, §6, §7, §8, §9, §10, §11, §12

[3] = system: RPE-1 cells; assay: GI50 determination, SRB assay; assay type: cell-based, human; conditions: read-out: Mean GI50 (μM) RPE-1 SRB Assays
Procedure: as §1, §2, §3, §4, §5, §6, §7, §8, §9, §10, §11, §12

[4] = Haemolysis assay; assay type: cell-based; conditions: human, human red blood cells (erythrocytes), pH 7.4, 1.39 mM total molecular concentration, 37 °C

Structure (SMILES) | GI50 ([1]; Homo sapiens, A2780cisR, 96 h) [µM] | GI50 ([2]; Homo sapiens, A2780, 96 h) [µM] | GI50 ([3]; Homo sapiens, RPE-1, 96 h) [µM] | hemolysis at 60 min, 1.39 mM [4] [%] | selectivity for the cancer cells over the RPE-1 cells ([2]; no impact on RPE-1 cell growth at 350 µM) | GI50 ([1]; 96 hours) [µM] | GI50 [2] [µM] | GI50 ([3]; 96 hours) [µM]
O=C(Nc1ccc(C(F)(F)F)cc1)N[C@@H](Cc1ccccc1)C(=O)O [SSA 7] | 356 | 178 | > 375 | 0.47 | – | – | – | –
O=C(Nc1ccc(C(F)(F)F)cc1)N[C@H](Cc1ccccc1)C(=O)O [SSA 9] | 197 | 105 | > 375 | – | ≥ two-fold | – | – | –
O=C(O)CNC(=O)Nc1ccc(C(F)(F)F)cc1 [SSA 1] | 367 | 117 | 296 | 0.29 | – | – | – | –
CC(C)CC(NC(=O)Nc1ccc(C(F)(F)F)cc1)C(=O)O (stereo not drawn) [SSA 3] | 276 | 171 | > 500 | – | – | – | – | –
CC(C)CC(NC(=O)Nc1ccc(C(F)(F)F)cc1)C(=O)O (stereo not drawn) [SSA 5] | – | – | – | – | – | 498 | 231 | > 375
